Activity calls are given as the source filed them. The rule behind the calls is not given here. Positions of bridges follow the written chain, without caps; N, C: chain ends. Non-standard residues stand in square brackets, D forms with d. Residues, ends and D or L forms follow the SMILES beside them. dPen = CC(C)(S)[C@@H](N)C(=O)O; Orn = NCCC[C@H](N)C(=O)O
Tests used:
[1] = target: T1, Urotensin-2 receptor (Rattus norvegicus) (UniProt P49684); test: Antagonist activity at UT2 receptor in Albino rat aorta assessed as inhibition of […] aortic contraction; format: functional, tissue-based
T1 sequence (whole entry): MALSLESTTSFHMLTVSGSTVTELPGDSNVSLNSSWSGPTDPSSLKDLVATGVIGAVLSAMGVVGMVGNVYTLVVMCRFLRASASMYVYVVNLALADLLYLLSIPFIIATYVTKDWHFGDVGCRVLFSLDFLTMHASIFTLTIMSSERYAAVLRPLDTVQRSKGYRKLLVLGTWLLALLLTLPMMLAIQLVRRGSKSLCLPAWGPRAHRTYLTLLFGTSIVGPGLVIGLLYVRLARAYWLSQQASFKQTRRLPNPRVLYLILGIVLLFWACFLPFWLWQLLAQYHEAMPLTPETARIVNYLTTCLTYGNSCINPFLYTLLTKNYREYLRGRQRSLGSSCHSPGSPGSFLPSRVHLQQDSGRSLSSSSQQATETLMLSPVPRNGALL

[2] = target: T1, Urotensin-2 receptor (Rattus norvegicus); details: Albino, Aorta
Description: Agonist activity at UT2 receptor in Albino rat aorta assessed as induction of aortic contraction

pKb [1]: 8.3
pEC50 [2]: inactive
SMILES: CC(C)[C@H](NC(=O)[C@@H]1CSSC(C)(C)[C@@H](NC(=O)[C@@H](N)CC(=O)O)C(=O)N[C@@H](Cc2ccccc2)C(=O)N[C@H](Cc2c[nH]c3ccccc23)C(=O)N[C@@H](CCCN)C(=O)N[C@@H](Cc2ccc(O)cc2)C(=O)N1)C(=O)O (H-D[dPen]F[dW][Orn]YCV-OH; disulfide 2-7)

— ChEMBL document CHEMBL1136926 (J Med Chem, 2009)
